The results in this text go back to patent US20250353852A1, “COMPOUNDS AND COMPOSITIONS THAT INHIBIT PIKFYVE” (Kineta, Inc., priority 2021, published 2025).

pIC50: −log10 of the molar value. Where only a bound is given, the exact number is not on record here.

The test has as its target full-length human PIKFYVE (Homo sapiens (Human), UniProt Q9Y2I7, L932S/Q1183K/Q995L/S1033A/S696N/T998S). Put plainly: PIKfyve biochemical assay (ADP-Glo Kinase assay, Carna Biosciences). To be noted: class symbols. In short, it runs like this: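 N-terminal GST-fused full-length PIKFYVE from baculovirus, incubated with compound, substrate and ATP in 50 mM MOPS, 1 mM DTT, pH7.2 for 1 hour at room temperature. ADP formed detected by ADP-Glo luminescence; IC50 from four-parameter logistic fit of % inhibition.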
(ADP-Glo first removes unused ATP, then detects ADP through luciferase.)

Sequence of full-length human PIKFYVE (Q9Y2I7 whole entry S696N/L932S/Q995L/T998S/S1033A/Q1183K, the tested form may be a part): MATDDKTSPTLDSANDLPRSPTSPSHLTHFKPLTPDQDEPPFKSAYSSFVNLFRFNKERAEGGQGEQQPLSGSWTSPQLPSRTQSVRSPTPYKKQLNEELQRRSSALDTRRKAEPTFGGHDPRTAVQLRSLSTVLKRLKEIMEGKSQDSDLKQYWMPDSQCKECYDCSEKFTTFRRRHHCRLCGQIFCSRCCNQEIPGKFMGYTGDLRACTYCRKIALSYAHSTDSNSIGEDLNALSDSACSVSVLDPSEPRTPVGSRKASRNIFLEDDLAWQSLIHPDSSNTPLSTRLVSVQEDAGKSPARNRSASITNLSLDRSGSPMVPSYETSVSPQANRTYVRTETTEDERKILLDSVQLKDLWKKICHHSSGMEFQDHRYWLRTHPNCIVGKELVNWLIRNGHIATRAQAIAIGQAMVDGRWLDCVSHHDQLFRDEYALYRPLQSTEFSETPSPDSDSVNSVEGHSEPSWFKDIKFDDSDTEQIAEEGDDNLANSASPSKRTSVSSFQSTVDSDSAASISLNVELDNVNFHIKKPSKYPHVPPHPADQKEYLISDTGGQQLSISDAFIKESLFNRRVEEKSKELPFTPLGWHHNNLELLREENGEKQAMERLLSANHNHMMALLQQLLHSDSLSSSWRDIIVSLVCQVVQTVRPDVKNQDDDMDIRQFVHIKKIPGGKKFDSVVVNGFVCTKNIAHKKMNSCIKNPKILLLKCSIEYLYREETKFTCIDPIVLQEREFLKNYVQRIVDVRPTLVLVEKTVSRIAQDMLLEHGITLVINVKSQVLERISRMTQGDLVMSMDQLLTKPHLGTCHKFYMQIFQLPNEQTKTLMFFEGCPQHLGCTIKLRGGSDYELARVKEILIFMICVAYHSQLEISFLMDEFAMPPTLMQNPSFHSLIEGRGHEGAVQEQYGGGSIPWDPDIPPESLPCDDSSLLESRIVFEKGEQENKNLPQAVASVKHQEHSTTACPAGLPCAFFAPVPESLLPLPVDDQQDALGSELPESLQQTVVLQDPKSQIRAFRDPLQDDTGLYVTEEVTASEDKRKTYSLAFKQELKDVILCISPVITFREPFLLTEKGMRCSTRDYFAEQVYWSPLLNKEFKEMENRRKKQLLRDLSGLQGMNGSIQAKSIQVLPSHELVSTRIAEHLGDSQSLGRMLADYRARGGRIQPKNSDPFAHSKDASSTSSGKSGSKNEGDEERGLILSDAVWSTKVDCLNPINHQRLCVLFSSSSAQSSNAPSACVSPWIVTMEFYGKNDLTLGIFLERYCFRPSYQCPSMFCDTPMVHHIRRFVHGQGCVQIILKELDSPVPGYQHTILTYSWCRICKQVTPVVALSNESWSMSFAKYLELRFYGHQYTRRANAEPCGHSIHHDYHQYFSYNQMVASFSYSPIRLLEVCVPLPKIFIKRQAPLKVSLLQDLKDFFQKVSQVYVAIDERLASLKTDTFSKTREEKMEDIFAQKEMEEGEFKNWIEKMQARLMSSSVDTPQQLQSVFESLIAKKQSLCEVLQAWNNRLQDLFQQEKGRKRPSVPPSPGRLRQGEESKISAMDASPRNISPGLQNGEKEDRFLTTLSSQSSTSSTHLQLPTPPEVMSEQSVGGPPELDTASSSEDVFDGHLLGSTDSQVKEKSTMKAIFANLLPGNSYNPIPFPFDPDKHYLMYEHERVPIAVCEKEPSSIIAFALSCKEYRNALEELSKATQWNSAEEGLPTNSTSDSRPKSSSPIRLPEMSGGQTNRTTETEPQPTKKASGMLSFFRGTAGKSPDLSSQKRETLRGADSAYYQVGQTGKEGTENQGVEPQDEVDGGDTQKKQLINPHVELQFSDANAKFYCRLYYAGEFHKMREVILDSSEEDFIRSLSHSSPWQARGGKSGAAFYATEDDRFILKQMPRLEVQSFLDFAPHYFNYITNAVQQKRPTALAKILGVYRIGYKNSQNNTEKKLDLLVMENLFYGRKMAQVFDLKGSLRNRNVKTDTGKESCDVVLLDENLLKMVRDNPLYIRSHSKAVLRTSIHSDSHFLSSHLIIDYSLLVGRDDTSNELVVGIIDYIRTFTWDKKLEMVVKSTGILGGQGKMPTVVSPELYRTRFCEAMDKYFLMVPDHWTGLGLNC

In general, pIC50 refers to the IC50 on a negative log10 scale, so that one unit is a factor of ten. Low values mean a high IC50, high ones a low IC50. With `FC1(F)CNCC(c2ccn(-c3cc(N4CCOCC4)n4nc(-c5ccncc5)cc4n3)n2)C1` (centres unmarked) [Compound 74, 4-(5-(3-(5,5-difluoropiperidin-3-yl)-1H-pyrazol-1-yl)-2-(pyridin-4-yl)pyrazolo[1,5-a]pyrimidin-7-yl)morpholine], the pIC50 is 5.00 to 6.00.

Consider `O=C(/C=C/c1ccccc1)c1cc(N2CCOCC2)n2nc(-c3ccncc3)cc2n1` [Compound 114, 1-(7-morpholino-2-(pyridin-4-yl)pyrazolo[1,5-a]pyrimidin-5-yl)-3-phenylprop-2-en-1-one], for which the pIC50 was 5.00 to 6.00. Under `c1ccc(-c2nsc(-c3cc(N4CCOCC4)n4nc(-c5ccncc5)cc4n3)n2)cc1` [Compound 127, 4-(5-(3-phenyl-1,2,4-thiadiazol-5-yl)-2-(pyridin-4-yl)pyrazolo[1,5-a]pyrimidin-7-yl)morpholine] stands 7.00 to 8.00; under `c1ccc(-c2nc(-c3cc(N4CCOCC4)n4nc(-c5ccncc5)cc4n3)ns2)cc1` [Compound 128, 4-(5-(5-phenyl-1,2,4-thiadiazol-3-yl)-2-(pyridin-4-yl)pyrazolo[1,5-a]pyrimidin-7-yl)morpholine], 7.00 to 8.00. The same measure for `c1cc(-c2cc3nc(-n4cnc(C5CCCNC5)c4)cc(N4CCOCC4)n3n2)ccn1` (centres unmarked) [Compound 16, 4-(5-(4-(piperidin-3-yl)-1H-imidazol-1-yl)-2-(pyridin-4-yl)pyrazolo[1,5-a]pyrimidin-7-yl)morpholine]: 5.00 to 6.00; for `NC(=O)c1cc(N2CCOCC2)n2nc(-c3ccncc3)cc2n1` [Compound 102, 7-morpholino-2-(pyridin-4-yl)pyrazolo[1,5-a]pyrimidine-5-carboxamide]: 5.00 to 6.00. The same measure for `c1ccc(CC2CNCCN2c2cc(N3CCOCC3)n3nc(-c4ccncc4)cc3n2)cc1` (centres unmarked) [Compound 117, 4-(5-(2-benzylpiperazin-1-yl)-2-(pyridin-4-yl)pyrazolo[1,5-a]pyrimidin-7-yl)morpholine]: 5.00 to 6.00; for `Oc1c2c(nn1-c1cc(N3CCOCC3)n3nc(-c4ccncc4)cc3n1)CCCC2` [Compound 55, 2-(7-morpholino-2-(pyridin-4-yl)pyrazolo[1,5-a]pyrimidin-5-yl)-4,5,6,7-tetrahydro-2H-indazol-3-ol]: 6.00 to 7.00; for `c1cc(-c2cc3nc(-n4ccc(C5CCNCC5)n4)cc(N4CCOCC4)n3n2)ccn1` [Compound 62, 4-(5-(3-(piperidin-4-yl)-1H-pyrazol-1-yl)-2-(pyridin-4-yl)pyrazolo[1,5-a]pyrimidin-7-yl)morpholine]: 6.00 to 7.00. The compound “4-(5-(3-(3-fluorophenyl)-1H-pyrazol-1-yl)-2-(pyridin-4-yl)pyrazolo[1,5-a]pyrimidin-7-yl)morpholine [Compound 64]” gave a pIC50 of 7.00 to 8.00. Under `CN1CCC(c2cc(O)n(-c3cc(N4CCOCC4)n4nc(-c5ccncc5)cc4n3)n2)CC1` [Compound 56, 3-(1-methylpiperidin-4-yl)-1-(7-morpholino-2-(pyridin-4-yl)pyrazolo[1,5-a]pyrimidin-5-yl)-1H-pyrazol-5-ol] stands 6.00 to 7.00; under `CC(C)c1cc(O)n(-c2cc(N3CCOCC3)n3nc(-c4ccncc4)cc3n2)n1` [Compound 54, 3-isopropyl-1-(7-morpholino-2-(pyridin-4-yl)pyrazolo[1,5-a]pyrimidin-5-yl)-1H-pyrazol-5-ol], 6.00 to 7.00. On to `c1ccc(N2CC(c3cc(N4CCOCC4)n4nc(-c5ccncc5)cc4n3)C2)cc1` [Compound 121, 4-(5-(1-phenylazetidin-3-yl)-2-(pyridin-4-yl)pyrazolo[1,5-a]pyrimidin-7-yl)morpholine], for which the pIC50 was below 5.00.

For `c1ccc(-n2ccc(-c3cc(N4CCOCC4)n4nc(-c5ccncc5)cc4n3)n2)cc1` [Compound 14, 4-(5-(1-phenyl-1H-pyrazol-3-yl)-2-(pyridin-4-yl)pyrazolo[1,5-a]pyrimidin-7-yl)morpholine], the pIC50 was 7.00 to 8.00. `c1nn(-c2cc(N3CCOCC3)n3nc(C4CCCO4)cc3n2)c2c1COCC2` (centres unmarked) [Compound 100, 1-(7-morpholino-2-(tetrahydrofuran-2-yl)pyrazolo[1,5-a]pyrimidin-5-yl)-1,4,6,7-tetrahydropyrano[4,3-c]pyrazole] had a pIC50 below 5.00. As for `COc1cccc(-c2ccn(-c3cc(N4CCOCC4)n4nc(C5CCCO5)cc4n3)n2)c1` (centres unmarked) [Compound 93, 4-(5-(3-(3-methoxyphenyl)-1H-pyrazol-1-yl)-2-(tetrahydrofuran-2-yl)pyrazolo[1,5-a]pyrimidin-7-yl)morpholine], the pIC50 was 7.00 to 8.00.

On to `c1ccc(Oc2cccnc2-c2cc(N3CCOCC3)n3nc(-c4ccncc4)cc3n2)cc1` [Compound 41, 4-(5-(3-phenoxypyridin-2-yl)-2-(pyridin-4-yl)pyrazolo[1,5-a]pyrimidin-7-yl)morpholine], for which the pIC50 was 6.00 to 7.00. In turn, `c1ccc(C2CCN(c3cc(N4CCOCC4)n4nc(-c5ccncc5)cc4n3)C2)cc1` (centres unmarked) [Compound 33, 4-(5-(3-phenylpyrrolidin-1-yl)-2-(pyridin-4-yl)pyrazolo[1,5-a]pyrimidin-7-yl)morpholine] gave a pIC50 of 5.00 to 6.00. As to `COc1cnn(-c2cc(N3CCOCC3)n3nc(-c4ccncc4)cc3n2)c(=O)c1Br` [Compound 7, 4-bromo-5-methoxy-2-(7-morpholino-2-(pyridin-4-yl)pyrazolo[1,5-a]pyrimidin-5-yl)pyridazin-3(2H)-one], the pIC50 is 5.00 to 6.00. Turning to `Oc1cc(-c2cc(N3CCOCC3)n3nc(-c4ccncc4)cc3n2)nn1-c1cccc(F)c1` [Compound 59, 1-(3-fluorophenyl)-3-(7-morpholino-2-(pyridin-4-yl)pyrazolo[1,5-a]pyrimidin-5-yl)-1H-pyrazol-5-ol], the pIC50 is 7.00 to 8.00. The same measure for `C=Cc1cc2nc(-n3ccc(-c4ccccc4)n3)cc(N3CCOCC3)n2n1` [Compound 143, 4-(5-(3-phenyl-1H-pyrazol-1-yl)-2-vinylpyrazolo[1,5-a]pyrimidin-7-yl)morpholine]: 6.00 to 7.00; for `c1ccc(CC2COCCN2c2cc(N3CCOCC3)n3nc(-c4ccncc4)cc3n2)cc1` (centres unmarked) [Compound 36, 3-benzyl-4-(7-morpholino-2-(pyridin-4-yl)pyrazolo[1,5-a]pyrimidin-5-yl)morpholine]: 5.00 to 6.00. As to `Oc1cc(-c2cc(N3CCOCC3)n3nc(-c4ccncc4)cc3n2)nn1-c1ccccc1` [Compound 57, 3-(7-morpholino-2-(pyridin-4-yl)pyrazolo[1,5-a]pyrimidin-5-yl)-1-phenyl-1H-pyrazol-5-ol], the pIC50 is 7.00 to 8.00. The same measure for `COCC1(c2ccn(-c3cc(N4CCOCC4)n4nc(-c5ccncc5)cc4n3)n2)CC1` [Compound 83, 4-(5-(3-(1-(methoxymethyl)cyclopropyl)-1H-pyrazol-1-yl)-2-(pyridin-4-yl)pyrazolo[1,5-a]pyrimidin-7-yl)morpholine]: 6.00 to 7.00. Under `Fc1cc(N2CCOCC2)n2nc(-c3ccncc3)cc2n1` [Compound 29, 4-(5-fluoro-2-(pyridin-4-yl)pyrazolo[1,5-a]pyrimidin-7-yl)morpholine] stands 6.00 to 7.00. Compound `c1cc(-c2cc3nc(-n4cc5c(n4)CCCC5)cc(N4CCOCC4)n3n2)ccn1` [Compound 85, 4-(2-(pyridin-4-yl)-5-(4,5,6,7-tetrahydro-2H-indazol-2-yl)pyrazolo[1,5-a]pyrimidin-7-yl)morpholine] had a negative-log IC50 (pIC50) of 6.00 to 7.00.
